Literature values as cited in US20070178099A1, “Suppression of TNFalpha and IL-12 in therapy” (The Kennedy Institute of Rheumatology, priority 1996, published 2007).
Where two headings read alike, the source gives them in different places.

How the values were obtained:
[1] = test system: rheumatoid arthritis
[2] = test system: Crohn's disease; settings: open-label trial

## cA2: chimeric anti-TNF antibody: variable region of mouse anti-human TNF IgG1 antibody A2 and constant regions of human IgG1, kappa immunoglobulin
[1]; open-label trials
  clinical effect in rheumatoid arthritis: suppression of inflammation and with successful retreatment after relapse
[1]; randomized, double-blind, placebo-controlled trial
  clinical effect in rheumatoid arthritis: suppression of inflammation
[2]
  clinical effect in Crohn's disease: Beneficial effects
